# Laboratory results taken from paper PMC3818701 (The Pediatric infectious disease journal, 2013).
# Where two headings read alike, the source gives them in different places. Numbered stars: 1 amine (or outer) side, 2 acyl side, 3 side chain; on linkers, the order of the positions; unused ones are H or OH. Bridge positions count the residues as written; N and C are the ends. Square brackets hold non-standard residues; d marks the D form. Peptide text beside a SMILES is read from it. * marks the point of attachment. hTyr(3S-OH,4S-OH,3'-OSO3H) = N[C@H](C(=O)O)[C@H](O)[C@@H](O)c1ccc(O)c(OS(=O)(=O)O)c1; Orn(4R-OH,5R-OH) = O=C([C@H](C[C@@H](O)[C@@H](O)N[*:3])N[*:1])[*:2]; Pro(3S-OH,4S-Me) = C[C@H]1CN[C@H](C(=O)O)[C@H]1O; X1 = CCCCCOc1ccc(-c2cc(-c3ccc(C(=O)*)cc3)no2)cc1; Gln(3R-OH) = NC(=O)C[C@@H](O)[C@H](N)C(=O)O; Hyp = O=C(O)[C@@H]1C[C@@H](O)CN1
# Columns and labels:
# Safety assessments = assay type: in vivo, human; conditions: for AE leading to discontinuation / Any AE / Any SAE / Deaths: SAF, number of children (%)
# [1] = Plasma micafungin pharmacokinetics on day 7, Studies 2101 and 2102; assay type: in vivo, human; conditions: for Cmax / tmax / AUCtau / CLss / CLss/wt: day 7 plasma
# [2] = cited from earlier work
# [3] = cited from earlier work; for Cmax / Mean weight-adjusted CLss: children; for Mean AUCtau: febrile, neutropenic children with deep mycoses
# [4] = adults, cited from earlier work
# [5] = Study 2101, 3 mg/kg, 6–11 years (n = 13)
# [6] = Study 2101, 3 mg/kg, 12–16 years (n = 12)
# [7] = Study 2101, 4.5 mg/kg, 2–5 years (n = 31)
# [8] = Study 2101, 4.5 mg/kg, 6–11 years (n = 20)
# [9] = Study 2102, 4.5 mg/kg, 4 months–<2 years (n = 9)
# [10] = Study 2101, 3 mg/kg i.v. once daily, 6–11 years (n = 4), min–max
# [11] = Study 2101, 3 mg/kg i.v. once daily, 12–16 years (n = 8), median
# [12] = Study 2101, 3 mg/kg i.v. once daily, 12–16 years (n = 8), min–max
# [13] = Study 2101, 4.5 mg/kg i.v. once daily, 2–5 years (n = 8), median
# [14] = Study 2101, 4.5 mg/kg i.v. once daily, 2–5 years (n = 8), min–max
# [15] = Study 2101, 4.5 mg/kg i.v. once daily, 6–11 years (n = 3), median
# [16] = Study 2101, 4.5 mg/kg i.v. once daily, 6–11 years (n = 3), min–max
# [17] = Study 2101, 4.5 mg/kg i.v. once daily, 12–16 years (n = 1), mean
# [18] = Study 2101, 4.5 mg/kg i.v. once daily, 12–16 years (n = 1), median
# [19] = pooled analysis of Phase I, II, III trials, 296 children
structure (smiles),measurement,setting,value
"CCCCCOc1ccc(-c2cc(-c3ccc(C(=O)N[C@H]4C[C@@H](O)[C@@H](O)NC(=O)[C@@H]5[C@@H](O)[C@@H](C)CN5C(=O)[C@H]([C@H](O)CC(N)=O)NC(=O)[C@H]([C@H](O)[C@@H](O)c5ccc(O)c(OS(=O)(=O)O)c5)NC(=O)[C@@H]5C[C@@H](O)CN5C(=O)[C@H]([C@@H](C)O)NC4=O)cc3)no2)cc1 [micafungin] (X1-[Orn(4R-OH,5R-OH)]T[Hyp][hTyr(3S-OH,4S-OH,3'-OSO3H)][Gln(3R-OH)][Pro(3S-OH,4S-Me)]; lactam 1-C)",Deaths considered related to micafungin treatment or to fungal infection,Safety assessments; Studies 2101 and 2102,None
same,Liver function abnormalities,Safety assessments; Study 2101 (Table 3),4–6%
same,AE leading to discontinuation,Safety assessments; [5],0
same,Any AE,Safety assessments; [5],9 (69)
same,Any SAE,Safety assessments; [5],1 (8)
same,Deaths,Safety assessments; [5],0
same,AE leading to discontinuation,Safety assessments; [6],2 (17)
same,Any AE,Safety assessments; [6],11 (92)
same,Any SAE,Safety assessments; [6],3 (25)
same,Deaths,Safety assessments; [6],1 (8)
same,AE leading to discontinuation,Safety assessments; [7],1 (3)
same,Any AE,Safety assessments; [7],25 (81)
same,Any SAE,Safety assessments; [7],3 (10)
same,Deaths,Safety assessments; [7],0
same,AE leading to discontinuation,Safety assessments; [8],1 (5)
same,Any AE,Safety assessments; [8],16 (80)
same,Any SAE,Safety assessments; [8],2 (10)
same,Deaths,Safety assessments; [8],2 (10)
same,AE leading to discontinuation,"Safety assessments; Study 2101, Total (n = 78)",4 (5)
same,Any AE,"Safety assessments; Study 2101, Total (n = 78)",62 (80)
same,Any SAE,"Safety assessments; Study 2101, Total (n = 78)",9 (12)
same,Deaths,"Safety assessments; Study 2101, Total (n = 78)",3 (4)
same,AEs that led to permanent discontinuation of micafungin,"Safety assessments; Study 2101, four children, all possibly or probably related",5%
same,Permanent discontinuation due to hypomagnesemia,"Safety assessments; Study 2101, n = 1/78",1%
same,Permanent discontinuation due to pyrexia,"Safety assessments; Study 2101, n = 1/78",1%
same,Permanent discontinuation due to infusion-associated symptoms,"Safety assessments; Study 2101, n = 2/78",3%
same,SAEs considered related to micafungin treatment,"Safety assessments; Study 2101, n = 2/78",3%
same,AE considered related to micafungin: hypomagnesemia,"Safety assessments; Study 2101, n = 5/78",6%
same,Children with SAEs who recovered with no residual effects,"Safety assessments; Study 2101, n = 6/9",67%
same,AE considered related to micafungin: pyrexia,"Safety assessments; Study 2101, n = 7/78",9%
same,"AE considered related to micafungin: infusion-associated symptoms (hypotension, hypertension, cyanosis)","Safety assessments; Study 2101, n = 9/78",12%
same,Children experiencing SAEs other than death,"Safety assessments; Study 2101, n = 9/78",12%
same,AE vomiting,"Safety assessments; Study 2101, n = 10/78",13%
same,AE hypokalemia,"Safety assessments; Study 2101, n = 11/78",14%
same,AE pyrexia,"Safety assessments; Study 2101, n = 15/78",19%
same,Children experiencing at least one AE,"Safety assessments; Study 2101, n = 62/78",80%
same,AE leading to discontinuation,Safety assessments; [9],2 (22)
same,Any AE,Safety assessments; [9],9 (100)
same,Any SAE,Safety assessments; [9],5 (56)
same,Deaths,Safety assessments; [9],1 (11)
same,SAEs considered related to micafungin treatment,"Safety assessments; Study 2102, n = 1/9 (pathological fracture, possibly related)",11%
same,Children with SAEs who recovered with no residual effects,"Safety assessments; Study 2102, n = 4/5",80%
same,Children experiencing SAEs other than death,"Safety assessments; Study 2102, n = 5/9",56%
same,Abnormal liver function tests (NOS) considered related to micafungin,"Safety assessments; Study 2102, one child of 9",11%
same,AEs that led to permanent discontinuation of micafungin,"Safety assessments; Study 2102, two children",22%
same,Tolerability,"Safety assessments; once-daily 3 mg/kg and 4.5 mg/kg, children and adolescents with proven, probable, or suspected Candida infection",well tolerated
same,Cmax,"[1]; Study 2101, 3 mg/kg i.v. once daily, 6–11 years (n = 4), mean (SD), SD",20.8 (4.1) µg/mL
same,tmax,"[1]; Study 2101, 3 mg/kg i.v. once daily, 6–11 years (n = 4), median",1.1 h
same,AUCtau,[1]; [10],191.8 to 300.1 µg·h/mL
same,CLss,[1]; [10],344.8 to 625.7 mL/h
same,CLss/wt,[1]; [10],0.167 to 0.257 mL/min/kg
same,Cmax,[1]; [10],16.8 to 24.8 µg/mL
same,tmax,[1]; [10],1.0 to 1.2 h
same,CLss,[1]; [11],757.2 mL/h
same,tmax,[1]; [11],1.1 h
same,AUCtau,[1]; [12],158.9 to 240.1 µg·h/mL
same,CLss,[1]; [12],512.6 to 944.2 mL/h
same,CLss/wt,[1]; [12],0.158 to 0.317 mL/min/kg
same,Cmax,[1]; [12],12.2 to 44.5 µg/mL
same,tmax,[1]; [12],1.0 to 2.0 h
same,CLss,[1]; [13],222.9 mL/h
same,Cmax,[1]; [13],21.9 µg/mL
same,AUCtau,[1]; [14],110.0 to 335.4 µg·h/mL
same,CLss,[1]; [14],132.7 to 490.9 mL/h
same,CLss/wt,[1]; [14],0.223 to 0.682 mL/min/kg
same,Cmax,[1]; [14],8.4 to 28.7 µg/mL
same,tmax,[1]; [14],1.0 to 2.1 h
same,AUCtau,[1]; [15],264.4 µg·h/mL
same,CLss,[1]; [15],332.1 mL/h
same,Cmax,[1]; [15],20.2 µg/mL
same,tmax,[1]; [15],2.1 h
same,AUCtau,[1]; [16],245.7 to 325.2 µg·h/mL
same,CLss,[1]; [16],255.3 to 384.7 mL/h
same,CLss/wt,[1]; [16],0.23 to 0.305 mL/min/kg
same,Cmax,[1]; [16],17.9 to 24.0 µg/mL
same,tmax,[1]; [16],2.0 to 2.1 h
same,AUCtau,[1]; [17],339.0 µg·h/mL
same,CLss,[1]; [17],306.8 mL/h
same,CLss/wt,[1]; [17],0.222 mL/min/kg
same,Cmax,[1]; [17],24.9 µg/mL
same,tmax,[1]; [17],1.1 h
same,AUCtau,[1]; [18],339.0 µg·h/mL
same,CLss,[1]; [18],306.8 mL/h
same,CLss/wt,[1]; [18],0.222 mL/min/kg
same,Cmax,[1]; [18],24.9 µg/mL
same,tmax,[1]; [18],1.1 h
same,"CLss/wt, single child with highest value","[1]; Study 2101, 4.5 mg/kg, 2–5 years, single child, day 7",0.682 mL/min/kg
same,AUC(0-t),"[1]; human, plasma, iv, 4.5 mg/kg, Mean AUCtau, Study 2102",~300 µg·h/mL
same,Overall incidence of liver function abnormalities,[2]; pooled analysis of 3028 adult and pediatric patients,≤ 3%
same,Adverse events (AEs),[2]; [19],92%
same,Serious adverse events (SAEs),[2]; [19],~34%
same,AEs related to micafungin treatment,"[2]; pooled analysis, 296 children",27%
same,Related AEs/SAEs leading to discontinuation of therapy,"[2]; pooled analysis, 296 children",2%
same,SAEs related to micafungin treatment,"[2]; pooled analysis, n = 14/296 children",5%
same,Cmax,[3]; 3 mg/kg,30400 ng/mL
same,Mean weight-adjusted CLss,[3]; 3 mg/kg,0.283 mL/min/kg
same,Cmax,[3]; 4 mg/kg,43500 ng/mL
same,Mean weight-adjusted CLss,[3]; 4 mg/kg,0.237 mL/min/kg
same,Mean AUCtau,[3]; 3 mg/kg,190.5 µg·h/mL
same,Mean AUCtau,[3]; 4.0 mg/kg,301.9 µg·h/mL
same,AUCtau,[4]; 100 mg/day,101.6 µg·h/mL
same,AUCtau,[4]; 150 mg/day,166.7 µg·h/mL
